Measured values from paper PMC10951960, “CGP7930 - An allosteric modulator of GABABRs, GABAARs and inwardly-rectifying potassium channels” (Neuropharmacology, 2023).
Read-outs that look alike come from different tables or passages of the source.

What was measured:
[1] = tested on: GABAARs in hippocampal neurons; assay: slow inward current directly activated by CGP7930 in hippocampal neurons in high K+ external solution and its block by GABAAR antagonists; format: cell-based, rat; conditions: hippocampal neurons, high external K+
Description: (§1) Spontaneous inhibitory postsynaptic currents (sIPSCs) were recorded from cultured hippocampal neurons at 12–17 days in vitro (DIV). […] For recording K^+ currents in GIRK cells and neurons, the bath solution was switched to a high K^+ solution containing 25 mM KCl and reduced NaCl (120 mM), to shift the equilibrium potential for K^+ from approximately −90 to −47 mV, thus reversing the direction of K^+ current flux to net inward. GABABR-activated K^+ currents in cultured neurons were recorded in the additional presence of 2 mM kynurenic acid and 20 μM picrotoxin.
CGP7930 modulation at neuronal GABABRs was also characterised using baclofen-activated GIRK currents in hippocampal cultures similarly bathed in a high external K^+ concentration.

neuronal GABABRs = target: T1, neuronal GABABRs (Rattus norvegicus, UniProt O88871+Q9Z0U4); assay: baclofen-activated GIRK currents in hippocampal cultures, high external K+, whole-cell voltage clamp; format: cell-based; conditions: read-out: EC50 for CGP7930 potentiation of baclofen response
T1 construct: endogenous in cells; host or cells: cultured rat (E18 Sprague-Dawley) hippocampal neurons, 12-17 DIV
T1 sequence (Q9Z0U4 17-960 limits assumed): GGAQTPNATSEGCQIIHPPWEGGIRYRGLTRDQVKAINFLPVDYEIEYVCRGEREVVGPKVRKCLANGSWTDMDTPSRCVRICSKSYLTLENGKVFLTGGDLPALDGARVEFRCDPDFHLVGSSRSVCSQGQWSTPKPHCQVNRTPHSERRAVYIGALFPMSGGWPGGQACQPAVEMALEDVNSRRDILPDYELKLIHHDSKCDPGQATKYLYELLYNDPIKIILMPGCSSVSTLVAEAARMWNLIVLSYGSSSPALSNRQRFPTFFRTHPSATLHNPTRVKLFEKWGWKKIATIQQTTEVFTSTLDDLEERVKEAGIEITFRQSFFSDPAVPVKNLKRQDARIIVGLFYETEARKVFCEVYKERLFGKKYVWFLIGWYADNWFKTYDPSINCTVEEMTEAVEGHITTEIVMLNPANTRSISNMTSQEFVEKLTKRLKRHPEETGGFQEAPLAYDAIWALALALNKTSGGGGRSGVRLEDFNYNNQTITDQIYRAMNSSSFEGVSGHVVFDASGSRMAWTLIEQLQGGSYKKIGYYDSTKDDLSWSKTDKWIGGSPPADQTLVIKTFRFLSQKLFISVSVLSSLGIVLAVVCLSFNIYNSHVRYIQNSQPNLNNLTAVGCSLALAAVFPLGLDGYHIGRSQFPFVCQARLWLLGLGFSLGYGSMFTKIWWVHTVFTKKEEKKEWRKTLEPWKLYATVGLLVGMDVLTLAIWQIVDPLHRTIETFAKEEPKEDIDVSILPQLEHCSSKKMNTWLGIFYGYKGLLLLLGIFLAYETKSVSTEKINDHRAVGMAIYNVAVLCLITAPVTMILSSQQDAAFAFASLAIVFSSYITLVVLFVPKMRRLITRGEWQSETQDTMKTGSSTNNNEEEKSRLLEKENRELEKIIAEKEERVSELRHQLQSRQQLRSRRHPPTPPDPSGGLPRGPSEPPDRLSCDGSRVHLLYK
T1 sequence (O88871 41-940): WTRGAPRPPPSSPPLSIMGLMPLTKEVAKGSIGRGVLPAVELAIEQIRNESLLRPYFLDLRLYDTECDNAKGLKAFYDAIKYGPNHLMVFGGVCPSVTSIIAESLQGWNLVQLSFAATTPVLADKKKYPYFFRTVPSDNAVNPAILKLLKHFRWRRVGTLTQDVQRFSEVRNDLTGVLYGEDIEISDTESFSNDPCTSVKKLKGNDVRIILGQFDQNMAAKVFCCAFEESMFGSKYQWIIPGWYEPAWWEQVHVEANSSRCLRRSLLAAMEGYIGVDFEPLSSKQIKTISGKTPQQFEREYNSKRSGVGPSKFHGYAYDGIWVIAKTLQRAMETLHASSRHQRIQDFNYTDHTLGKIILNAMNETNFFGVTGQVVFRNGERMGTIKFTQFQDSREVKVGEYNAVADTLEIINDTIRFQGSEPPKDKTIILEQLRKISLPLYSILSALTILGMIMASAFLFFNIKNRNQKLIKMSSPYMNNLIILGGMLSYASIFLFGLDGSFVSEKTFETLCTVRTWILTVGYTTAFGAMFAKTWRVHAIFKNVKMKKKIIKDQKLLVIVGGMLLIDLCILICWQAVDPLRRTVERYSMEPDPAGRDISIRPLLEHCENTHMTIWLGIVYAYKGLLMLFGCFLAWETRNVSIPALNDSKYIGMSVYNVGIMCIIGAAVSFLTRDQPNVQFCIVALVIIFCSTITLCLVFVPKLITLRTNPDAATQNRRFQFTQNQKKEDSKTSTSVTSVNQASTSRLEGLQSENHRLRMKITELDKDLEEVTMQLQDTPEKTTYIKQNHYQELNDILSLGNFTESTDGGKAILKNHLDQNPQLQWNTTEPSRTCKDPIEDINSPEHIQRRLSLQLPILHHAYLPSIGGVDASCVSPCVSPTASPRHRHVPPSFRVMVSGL
Description: Briefly, single cells derived from dissected hippocampi were seeded onto glass coverslips coated with poly-D-lysine in a plating medium containing minimum essential media with 5% v/v heat-inactivated FCS, 5% v/v heat-inactivated horse serum, penicillin-G/streptomycin (100 U/100 μg/ml), 2 mM L-glutamine, and 20 mM glucose. Two hr after plating the media was changed to a Neurobasal-A based maintenance media supplemented with 1% v/v B-27, penicillin-G/streptomycin (100 U/100 μg/ml), 0.5% v/v Glutamax and 35 mM glucose.
Spontaneous inhibitory postsynaptic currents (sIPSCs) were recorded from cultured hippocampal neurons at 12–17 days in vitro (DIV). […] GABABR-activated K^+ currents in cultured neurons were recorded in the additional presence of 2 mM kynurenic acid and 20 μM picrotoxin.
Borosilicate glass electrodes (3–5 MΩ) were filled with a K^+-based internal solution for recording GIRK currents containing (mM): 120 KCl, 2 MgCl2, 11 EGTA, 30 KOH, 10 HEPES, 1 CaCl2, 1 GTP, 2 ATP, 14 creatine phosphate, pH 7.0. GABAAR currents and sIPSCs were recorded with a Cs-based internal solution containing (mM): 120 CsCl, 1 MgCl2, 11 EGTA, 30 KOH, 10 HEPES, 1 CaCl2, and 2 K2ATP; pH 7.2. […] Cells were held at −60 mV (sIPSCs) or −60/−70 mV (K^+ currents). Voltage clamp recordings were undertaken after optimising series resistance (Rs, <10 MΩ) and compensating for the whole-cell membrane capacitance. […]

α4β3δ GABAAR = target: T2, α4β3δ GABAAR (Mus musculus, UniProt P22933+P63080+Q9D6F4); assay: whole-cell currents of recombinant GABAA receptors in HEK-293 cells (α4β3δ); format: cell-based, murine
T2 construct: expressed in transfected cells; host or cells: HEK-293T
T2 sequence (Q9D6F4 36-552): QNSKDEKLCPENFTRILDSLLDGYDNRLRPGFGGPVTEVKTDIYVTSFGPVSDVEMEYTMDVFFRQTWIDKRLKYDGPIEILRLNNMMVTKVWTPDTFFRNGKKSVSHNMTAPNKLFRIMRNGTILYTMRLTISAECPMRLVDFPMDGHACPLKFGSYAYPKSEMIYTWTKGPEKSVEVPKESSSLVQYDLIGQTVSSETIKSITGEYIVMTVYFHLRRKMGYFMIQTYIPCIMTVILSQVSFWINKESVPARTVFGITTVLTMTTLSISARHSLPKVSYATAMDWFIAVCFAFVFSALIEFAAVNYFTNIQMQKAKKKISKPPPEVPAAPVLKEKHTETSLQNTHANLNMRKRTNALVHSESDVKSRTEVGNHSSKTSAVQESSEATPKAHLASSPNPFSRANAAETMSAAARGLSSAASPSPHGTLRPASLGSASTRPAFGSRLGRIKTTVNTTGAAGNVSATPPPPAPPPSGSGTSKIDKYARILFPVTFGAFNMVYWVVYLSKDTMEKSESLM
T2 sequence (P63080 26-473): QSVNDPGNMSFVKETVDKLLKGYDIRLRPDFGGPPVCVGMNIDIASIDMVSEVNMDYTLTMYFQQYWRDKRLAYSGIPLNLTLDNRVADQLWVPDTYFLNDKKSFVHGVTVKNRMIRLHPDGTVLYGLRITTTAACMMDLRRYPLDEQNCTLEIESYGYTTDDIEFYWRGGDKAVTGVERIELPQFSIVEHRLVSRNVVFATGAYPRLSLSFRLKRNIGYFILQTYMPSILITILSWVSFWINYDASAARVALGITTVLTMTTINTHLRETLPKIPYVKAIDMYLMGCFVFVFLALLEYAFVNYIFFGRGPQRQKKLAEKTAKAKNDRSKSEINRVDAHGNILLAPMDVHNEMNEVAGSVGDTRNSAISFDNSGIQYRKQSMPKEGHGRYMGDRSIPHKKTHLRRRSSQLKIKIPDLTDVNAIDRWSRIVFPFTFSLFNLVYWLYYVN
T2 sequence (P22933 17-449 limits assumed): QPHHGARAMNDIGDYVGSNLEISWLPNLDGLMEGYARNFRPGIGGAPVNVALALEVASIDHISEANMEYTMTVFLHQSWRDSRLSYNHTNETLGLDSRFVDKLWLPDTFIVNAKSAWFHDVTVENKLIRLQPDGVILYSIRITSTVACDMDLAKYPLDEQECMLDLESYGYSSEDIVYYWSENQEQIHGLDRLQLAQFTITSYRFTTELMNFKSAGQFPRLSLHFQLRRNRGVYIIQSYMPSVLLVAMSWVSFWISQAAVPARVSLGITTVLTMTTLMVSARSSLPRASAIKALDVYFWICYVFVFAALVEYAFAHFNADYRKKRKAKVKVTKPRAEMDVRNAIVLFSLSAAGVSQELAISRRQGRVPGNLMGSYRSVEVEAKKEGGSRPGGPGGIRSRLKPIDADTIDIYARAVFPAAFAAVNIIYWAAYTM
Description: (§2) CGP55845, and other drugs, were obtained from Merck (Sigma-Aldrich) unless otherwise stated.
(§3) All cell culture reagents were acquired from ThermoFisher unless otherwise stated. […] These cells are referred to as GIRK cells throughout the text and were transiently transfected with cDNAs for eGFP, GABAB R1a and R2 in a 1:1:5 ratio applied 1–2 h after cell plating.
as §1
(§4) Borosilicate glass electrodes (3–5 MΩ) were filled with a K^+-based internal solution for recording GIRK currents containing (mM): 120 KCl, 2 MgCl2, 11 EGTA, 30 KOH, 10 HEPES, 1 CaCl2, 1 GTP, 2 ATP, 14 creatine phosphate, pH 7.0. GABAAR currents and sIPSCs were recorded with a Cs-based internal solution containing (mM): 120 CsCl, 1 MgCl2, 11 EGTA, 30 KOH, 10 HEPES, 1 CaCl2, and 2 K2ATP; pH 7.2. […] Cells were held at −60 mV (sIPSCs) or −60/−70 mV (K^+ currents). Voltage clamp recordings were undertaken after optimising series resistance (Rs, <10 MΩ) and compensating for the whole-cell membrane capacitance. Membrane currents were filtered at 5 kHz (−3 dB, 6th pole Bessel, 36 dB/octave) and stored for analysis with Clampex 10.
(§5) Concentration-response curves were generated by measuring the current (I) for each ligand concentration and normalising to the maximal current response (Imax).
(§6) We explored the ability of CGP7930 to modulate different recombinant GABAARs expressed in HEK-293 cells to avoid confounds arising from heterogeneous receptor subtypes in neurons.

α1β2γ2L GABAAR = target: T3, α1β2γ2L GABAAR (Mus musculus, UniProt P22723+P62812+P63137); assay: whole-cell currents of recombinant GABAA receptors in HEK-293 cells (α1β2γ2L); format: cell-based, murine
T3 construct: expressed in transfected cells; host or cells: HEK-293T
T3 sequence (P62812 28-455): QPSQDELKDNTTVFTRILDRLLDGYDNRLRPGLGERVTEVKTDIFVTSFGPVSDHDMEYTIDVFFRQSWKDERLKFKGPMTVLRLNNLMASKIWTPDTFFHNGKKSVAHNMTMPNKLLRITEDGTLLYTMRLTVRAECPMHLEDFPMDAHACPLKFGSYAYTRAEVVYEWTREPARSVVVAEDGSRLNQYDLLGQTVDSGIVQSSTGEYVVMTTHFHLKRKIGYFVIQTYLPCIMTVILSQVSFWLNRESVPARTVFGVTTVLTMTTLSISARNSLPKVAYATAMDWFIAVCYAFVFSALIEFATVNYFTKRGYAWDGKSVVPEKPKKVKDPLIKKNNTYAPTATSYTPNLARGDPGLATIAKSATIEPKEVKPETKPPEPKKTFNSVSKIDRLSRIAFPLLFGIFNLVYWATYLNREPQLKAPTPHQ
T3 sequence (P63137 25-512 limits assumed): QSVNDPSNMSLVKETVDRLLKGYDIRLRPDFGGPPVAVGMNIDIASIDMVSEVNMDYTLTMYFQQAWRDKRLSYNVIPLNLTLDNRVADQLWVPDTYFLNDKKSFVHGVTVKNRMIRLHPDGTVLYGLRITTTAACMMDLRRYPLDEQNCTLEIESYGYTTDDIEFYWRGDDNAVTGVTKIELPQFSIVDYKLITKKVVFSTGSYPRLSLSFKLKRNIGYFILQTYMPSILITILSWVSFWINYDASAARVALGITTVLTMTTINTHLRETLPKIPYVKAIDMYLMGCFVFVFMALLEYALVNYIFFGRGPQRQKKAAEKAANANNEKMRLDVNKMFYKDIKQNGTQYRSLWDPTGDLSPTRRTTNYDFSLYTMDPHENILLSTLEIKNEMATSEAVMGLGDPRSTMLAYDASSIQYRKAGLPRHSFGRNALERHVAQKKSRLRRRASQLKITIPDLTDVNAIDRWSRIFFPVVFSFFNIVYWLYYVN
T3 sequence (P22723 39-474): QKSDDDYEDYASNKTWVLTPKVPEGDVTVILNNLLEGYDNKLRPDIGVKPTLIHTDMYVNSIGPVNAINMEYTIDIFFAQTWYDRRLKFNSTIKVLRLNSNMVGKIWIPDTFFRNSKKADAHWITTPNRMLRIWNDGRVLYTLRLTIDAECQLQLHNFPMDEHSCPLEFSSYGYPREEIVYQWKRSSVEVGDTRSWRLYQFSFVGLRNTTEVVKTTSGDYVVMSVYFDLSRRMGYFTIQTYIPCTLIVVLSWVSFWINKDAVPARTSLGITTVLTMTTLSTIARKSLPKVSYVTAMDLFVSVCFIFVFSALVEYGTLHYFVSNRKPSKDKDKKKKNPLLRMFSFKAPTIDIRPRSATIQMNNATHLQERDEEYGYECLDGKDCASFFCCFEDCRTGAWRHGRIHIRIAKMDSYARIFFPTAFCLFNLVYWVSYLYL
Description: as §2, §3, §1, §4, §5, §6

- EC50 (neuronal GABABRs): 0.9 ± 0.6 µM
- IC50 (α4β3δ GABAAR): 19.6 ± 13.1 µM
- EC50 (α4β3δ GABAAR; EC50 of GABA EC20 modulation curve, α4β3δ, ∼EC20 GABA, n = 7): 1 ± 0.3 µM
- EC50 (α4β3δ GABAAR; α4β3δ (αβδ), read-out: EC50 for direct activation by CGP7930 alone): 13.1 ± 1.4 µM
- threshold for direct activation (α4β3δ GABAAR; α4β3δ, CGP7930 alone): 1 to 3 µM
- IC50 (α1β2γ2L GABAAR): 6.6 ± 2.3 µM
- EC50 (α1β2γ2L GABAAR; EC50 of GABA EC20 modulation curve, α1β2γ2L, ∼EC20 GABA, direct effects subtracted, n = 5): 1.7 ± 1.3 µM
- EC50 (α1β2γ2L GABAAR; α1β2γ2L (αβγ), read-out: EC50 for direct activation by CGP7930 alone): 9.3 ± 0.7 µM
- threshold for direct activation (α1β2γ2L GABAAR; α1β2γ2L, CGP7930 alone): 1 to 3 µM
- concentration at which clear direct activation became evident (α1β2γ2L GABAAR; α1β2γ2L, pre-application): 3 to 10 µM
- threshold for potentiation of the GABA current (α1β2γ2L GABAAR; α1β2γ2L, pre-application): 1 µM
Structure (SMILES): CC(C)(CO)Cc1cc(C(C)(C)C)c(O)c(C(C)(C)C)c1 [CGP7930, 3-(3′,5′-Di-tert-butyl-4′-hydroxy) phenyl-2,2-dimethylpropanol]
- concentration at which pre-application caused a slow inward current [1]: > 3 µM
